Data taken from patent US20220323626A1, “Compositions, Kits, Methods and Uses for Preventing Microbial Growth” (Collidion, Inc., priority 2019, published 2022).

Tested on: Staphylococcus aureus (ATCC 29213)
Experiment: Microbiostatic assay: antimicrobial effectiveness test according to USP-51, viable colony counts over 28 days
Format: cell-based
Conditions: inferred from the initial assays (7-log reduction at 0.5 ppm and above)
Description: To prepare stock cultures of pathogenic bacteria, 10 mL nutrient broth was inoculated using a stock culture of Staphylococcus aureus (ATCC 29213) and incubated on an orbital shaker for 24±2 hours at approximately 150 rpm at 36±1° C. This culture was used to inoculate Tryptic Soy Agar (TSA) plates. Each plate was inoculated with the culture. Each plate was incubated for up to 48 hours at 30° C. to 35° C. Following incubation, suspensions were prepared by adding growth from TSA plates into a tube containing sterile water. Each tube was then vortexed and an aliquot was serially diluted and plated onto TSA plate for further numeration. The final numeration count uses aliquot volume, count obtained on TSA plate and the total original volume of culture. […]
Each composition was tested over a seven log dilution series of pathogen bacteria assays by preparing samples containing 200 μL of a pathogenic bacteria suspension, 20 μL of an organic load, and 20,000 μL of a composition disclosed herein. […] The presence of viable bacteria was then measured by counting the number of colonies observed on the agar medium for each assay sample. Log reduction is determined by taking the log10 of the number calculated by taking the number of viable pathogenic bacteria colonies present in the assay sample without serum divided by the number of viable pathogenic bacteria colonies present in the assay sample with serum. […]

## hypochlorous acid
  minimum microbiocidal concentration of hypochlorous acid or free available chlorine in the disclosed compositions: approximately 0.5 ppm
